# ChEMBL document CHEMBL3785054, “Identification of inhibitors for vascular endothelial growth factor receptor by using dynamic combinatorial chemistry” (Bioorg Med Chem Lett, 2016)
# Calls of active or inactive are those of the source. The rule behind the calls is not given here.
# Test system: not listed separately
# Test: Cytotoxicity against human […] cells by MTT assay
# Assay type: functional, cell-based
# Details: not given
row,Compound,IC50 [µM]
1,O=C(Nc1ccc2c(/C=N/c3ccccn3)n[nH]c2c1)Nc1nncs1,> 100
2,O=C(Nc1ccc2c(/C=N/c3cccnc3)n[nH]c2c1)Nc1nncs1,> 100
3,O=C(Nc1ccc2c(/C=N/c3ncccn3)n[nH]c2c1)Nc1nccs1,15.4
4,CC1CC(=O)NN=C1c1ccc(NC(=O)Nc2ccc3c(/C=N/c4nccs4)n[nH]c3c2)cc1 (stereo unspecified),11.2

# Test system: A549
# Test: Cytotoxicity against human A549 cells by MTT assay
# Assay type: functional, cell-based
# Details: not given
row,Compound,IC50 [µM]
1,O=C(Nc1ccc2c(/C=N/c3ccccn3)n[nH]c2c1)Nc1nncs1,56.4
2,CCN(CC)CCNC(=O)c1c(C)[nH]c(/C=C2\C(=O)Nc3ccc(F)cc32)c1C [SUNITINIB],9.1
3,O=C(Nc1ccc2c(/C=N/c3cccnc3)n[nH]c2c1)Nc1nncs1,2.4
4,O=C(Nc1ccc2c(/C=N/c3ncccn3)n[nH]c2c1)Nc1nccs1,19.6
5,CC1CC(=O)NN=C1c1ccc(NC(=O)Nc2ccc3c(/C=N/c4nccs4)n[nH]c3c2)cc1 (stereo unspecified),8.9

# Test system: not listed separately
# Test: Cytotoxicity against human PC3 cells by MTT assay
# Assay type: functional, cell-based
# Details: PC-3
row,Compound,IC50 [µM]
1,O=C(Nc1ccc2c(/C=N/c3ccccn3)n[nH]c2c1)Nc1nncs1,> 100
2,CCN(CC)CCNC(=O)c1c(C)[nH]c(/C=C2\C(=O)Nc3ccc(F)cc32)c1C [SUNITINIB],55.6
3,O=C(Nc1ccc2c(/C=N/c3cccnc3)n[nH]c2c1)Nc1nncs1,7.8
4,O=C(Nc1ccc2c(/C=N/c3ncccn3)n[nH]c2c1)Nc1nccs1,6.8
5,CC1CC(=O)NN=C1c1ccc(NC(=O)Nc2ccc3c(/C=N/c4nccs4)n[nH]c3c2)cc1 (stereo unspecified),5.6

# Test system: MDA-MB-435
# Test: Cytotoxicity against human MDA-MB-435 cells by MTT assay
# Assay type: functional, cell-based
# Details: not given
row,Compound,IC50 [µM]
1,O=C(Nc1ccc2c(/C=N/c3ccccn3)n[nH]c2c1)Nc1nncs1,4.8
2,CCN(CC)CCNC(=O)c1c(C)[nH]c(/C=C2\C(=O)Nc3ccc(F)cc32)c1C [SUNITINIB],9.3
3,O=C(Nc1ccc2c(/C=N/c3cccnc3)n[nH]c2c1)Nc1nncs1,55.6
4,O=C(Nc1ccc2c(/C=N/c3ncccn3)n[nH]c2c1)Nc1nccs1,55.2
5,CC1CC(=O)NN=C1c1ccc(NC(=O)Nc2ccc3c(/C=N/c4nccs4)n[nH]c3c2)cc1 (stereo unspecified),22.7

# Test system: HT-29
# Test: Cytotoxicity against human HT-29 cells by MTT assay
# Assay type: functional, cell-based
# Details: not given
row,Compound,IC50 [µM]
1,O=C(Nc1ccc2c(/C=N/c3ccccn3)n[nH]c2c1)Nc1nncs1,9.4
2,CCN(CC)CCNC(=O)c1c(C)[nH]c(/C=C2\C(=O)Nc3ccc(F)cc32)c1C [SUNITINIB],1.7
3,O=C(Nc1ccc2c(/C=N/c3cccnc3)n[nH]c2c1)Nc1nncs1,12.1
4,O=C(Nc1ccc2c(/C=N/c3ncccn3)n[nH]c2c1)Nc1nccs1,78.6
5,CC1CC(=O)NN=C1c1ccc(NC(=O)Nc2ccc3c(/C=N/c4nccs4)n[nH]c3c2)cc1 (stereo unspecified),12.8

# Test system: not listed separately
# Test: Cytotoxicity against human BGC823 cells by MTT assay
# Assay type: functional, cell-based
# Details: BGC-823
row,Compound,IC50 [µM]
1,O=C(Nc1ccc2c(/C=N/c3ccccn3)n[nH]c2c1)Nc1nncs1,> 100
2,O=C(Nc1ccc2c(/C=N/c3cccnc3)n[nH]c2c1)Nc1nncs1,67.2
3,O=C(Nc1ccc2c(/C=N/c3ncccn3)n[nH]c2c1)Nc1nccs1,12.8
4,CC1CC(=O)NN=C1c1ccc(NC(=O)Nc2ccc3c(/C=N/c4nccs4)n[nH]c3c2)cc1 (stereo unspecified),78

# Test system: Chorioallantoic membrane
# Test: Antiangiogenic activity in chicken chorioallantoic membrane assessed as inhibition of vascular branch formation after 3 days
# Assay type: functional
# Details: Gallus gallus
row,Compound,inhibition
1,O=C(Nc1ccc2c(/C=N/c3ccccn3)n[nH]c2c1)Nc1nncs1,Active
2,O=C(Nc1ccc2c(/C=N/c3cccnc3)n[nH]c2c1)Nc1nncs1,Active

# Same assay, conditions: Gallus gallus, dose or concentration not given here
row,Compound,inhibition [%]
1,O=C(Nc1ccc2c(/C=N/c3ncccn3)n[nH]c2c1)Nc1nccs1,51.6
